Assay results published in patent publication US11464749B2, “Bismuth-thiol compositions and methods of use” (Microbion Corporation, priority 2018, dated 2022).
≈ marks a conversion by molar mass, not a printed value.

How the values were obtained:
[1] = system: Staphylococcus aureus (MRSA); experiment: Broth microdilution MIC (Example 11)
[2] = system: S. agalactiae; experiment: Broth microdilution MIC (Example 11); conditions: Streptococcus agalactiae
[3] = system: Bacteroides fragilis; conditions: B. fragilis MMX 123 (ATCC 25285); cited from earlier work
[4] = system: S. pyogenes; experiment: Broth microdilution MIC (Example 11); conditions: Streptococcus pyogenes
[5] = system: E. faecalis; experiment: Broth microdilution MIC (Example 11); conditions: Enterococcus faecalis, VRE, VRE Lev^R Cip^R Ery^R
[6] = system: Clostridium difficile; conditions: C. difficile MMX 4381 (ATCC 700057); cited from earlier work
[7] = system: S. pneumoniae; experiment: Broth microdilution MIC (Example 11); conditions: Streptococcus pneumoniae
[8] = system: vancomycin-intermediate Staphylococcus aureus (VISA); experiment: Broth microdilution MIC (Example 12); conditions: Staphylococcus aureus, NRS13 / VISA, read-out: MIC values
[9] = system: S. pneumoniae; conditions: S. pneumoniae MMX 6837 (ATCC 49619); cited from earlier work
[10] = S. agalactiae MMX 3741, ERY^R CC^R
[11] = S. agalactiae MMX 3743, ERY^R CC^R
[12] = S. agalactiae MMX 4077, ERY^R CC^R
[13] = S. agalactiae MMX 4079, ERY^R CC^R Pen^R MEM^R
[14] = S. agalactiae MMX 4086, ERY^R CC^R
[15] = S. pyogenes MMX 3820, ERY^R CLI^R
[16] = S. pyogenes MMX 3929, ERY^R CC^R
[17] = S. pyogenes MMX 5091, ERY^R CC^R
[18] = ATCC49619, S. pneumoniae MMX 6837 (ATCC 49619), QC
[19] = S. pneumoniae MMX 880, Lev^R SXT^R CC^R Ery^R Pen^R
[20] = S. pneumoniae MMX 937, Mem^R SXT^R CC^R Ery^R Pen^R
[21] = S. pneumoniae MMX 3959, CC^R Ery^R
[22] = S. pneumoniae MMX 5440, Mem^R SXT^R CC^R Ery^R Pen^R
[23] = S. pneumoniae MMX 5445, Mem^R SXT^R CC^R Ery^R Pen^R
[24] = S. pneumoniae MMX 8133, Mem^R SXT^R CC^R Ery^R Pen^R

Structure (SMILES)	MIC [2, 10] [µg/mL]	MIC [2, 11] [µg/mL]	MIC [2, 12] [µg/mL]	MIC [2, 13] [µg/mL]	MIC [2, 14] [µg/mL]	MIC ([4]; S. pyogenes MMX 3068, Ery^R) [µg/mL]	MIC [4, 15] [µg/mL]	MIC ([4]; S. pyogenes MMX 3919, ERY^R) [µg/mL]	MIC [4, 16] [µg/mL]	MIC [4, 17] [µg/mL]	MIC [7, 18] [µg/mL]	MIC [7, 19] [µg/mL]	MIC [7, 20] [µg/mL]	MIC [7, 21] [µg/mL]	MIC [7, 22] [µg/mL]	MIC [7, 23] [µg/mL]	MIC [7, 24] [µg/mL]	also measured
CCC[C@@H]1C[C@@H](C(=O)N[C@@H]([C@H]2O[C@H](SC)[C@H](O)[C@@H](O)[C@H]2O)[C@H](C)Cl)N(C)C1 [clindamycin]	> 8	> 8	> 8	> 8	> 8	0.06 (≈ 0.141 µM)	1 (≈ 2.35 µM)	0.12 (≈ 0.282 µM)	> 8	> 8	0.06 (≈ 0.141 µM)	> 8	> 8	> 8	> 8	> 8	> 8	MIC ([1]; ATCC29213|MRSA|MSSA, S. aureus MMX 101 (ATCC 29213), QC, MSSA): 0.12 µg/mL (≈ 0.282 µM); MIC ([1]; MRSA, S. aureus MMX 5373, MRSA Lev^R Cip^R CC^R Ery^R Ox^R): > 32 µg/mL; MIC ([1]; MRSA, S. aureus MMX 6311, MRSA Lev^R Cip^R CC^R Ery^R Ox^R): > 32 µg/mL; MIC ([1]; MRSA, S. aureus MMX 9203, MRSA Lev^R Cip^R Ery^R Ox^R): 0.12 µg/mL (≈ 0.282 µM); MIC ([1]; MRSA, S. aureus MMX 9204, MRSA Lev^R Cip^R Ery^R Ox^R): 0.12 µg/mL (≈ 0.282 µM); MIC ([1]; MRSA, S. aureus MMX 9205, MRSA Lev^R Cip^R CC^R Ery^R Ox^R): > 32 µg/mL; MIC, CLSI QC range [3]: (0.5-2)^1 ^ pg/mL; MIC ([5]; E. faecalis MMX 8960): > 32 µg/mL; MIC ([5]; E. faecalis MMX 8961): > 32 µg/mL; MIC ([5]; E. faecalis MMX 8962): > 32 µg/mL; MIC, CLSI QC range [6]: (2-8) pg/mL; MIC [8]: ≥ 4 µg/mL
CC1(C)S[C@@H]2[C@H](NC(=O)Cc3ccccc3)C(=O)N2[C@H]1C(=O)O [Penicillin]	0.03 (≈ 0.0897 µM)	0.06 (≈ 0.179 µM)	0.06 (≈ 0.179 µM)	2 (≈ 5.98 µM)	0.06 (≈ 0.179 µM)	≤ 0.008	≤ 0.008	≤ 0.008	≤ 0.008	≤ 0.008	0.25 (≈ 0.748 µM)	2 (≈ 5.98 µM)	4 (≈ 12 µM)	0.12 (≈ 0.359 µM)	4 (≈ 12 µM)	4 (≈ 12 µM)	4 (≈ 12 µM)	MIC, CLSI QC range [9]: (0.25-1) μg/mL
